Test results taken from patent US10294202B2, “Pyrrolidinones as herbicides” (FMC Corporation, priority 2013, dated 2019).

Assays:
sedge, umbrella = test: Test C flooded paddy test; type: in vivo, Cyperus difformis; details: Flood
Summary of the method: (§1)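 Plants at the 2-leaf stage in pots flooded to 3 cm were treated by applying compound directly to the paddy water, with depth held throughout. After 13 to 15 days in a greenhouse, response was rated visually against controls on a 0 (no effect) to 100 (complete control) scale.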

ragweed = test: Test A pre-/postemergence herbicide test; type: in vivo, Ambrosia elatior; details: for Plant response rating, Ragweed: 0 to 100 scale
Summary of the method: (§2)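 Approximately 10 days after treatment in the greenhouse, plants were compared with untreated controls and given a 0–100 visual injury rating. Applications: preemergence directed soil spray; postemergence on 2–10 cm plants at the one- to two-leaf stage.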

kochia = test: Test A pre-/postemergence herbicide test; type: in vivo, Kochia scoparia; details: for Plant response rating, Kochia: 0 to 100 scale
Summary of the method: as §2

wheat (winter wheat) = test: Test C pre-/postemergence herbicide test; type: in vivo, Triticum aestivum; details: Preemergence; for Plant response rating (scale of 0 to 100), Wheat: 250 g ai/ha
Summary of the method: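 Plants grown and held in a greenhouse for 13 to 15 days post-spray, then rated 0–100 by visual comparison with controls. Pre treatments targeted seeds in loam and sand; post treatments targeted 1- to 4-leaf plants in peat-based potting medium.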

rice = test: Test C flooded paddy test; type: in vivo, Oryza sativa; details: Flood
Summary of the method: as §1

galium = test: Test A postemergence herbicide test; type: in vivo, Galium aparine
Summary of the method: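 Potted in loam soil/sand blend; postemergence application at 1–2 leaf stage (2–10 cm). Greenhouse ~10 d. Visual injury vs untreated, 0–100 scale; 100 = complete control.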

ryegrass, Italian = test: Test C pre-/postemergence herbicide test; type: in vivo, Lolium multiflorum; details: Preemergence; for Plant response rating (scale of 0 to 100), Ryegrass, Italian: 250 g ai/ha
Source text: (§3) Seeds of plant species selected from blackgrass (Alopecurus myosuroides), ryegrass, Italian (Italian ryegrass, Lolium multiflorum), wheat (winter wheat, Triticum aestivum), galium (catchweed bedstraw, Galium aparine), corn (Zea mays), crabgrass, large (large crabgrass, Digitaria sanguinalis), foxtail, giant (giant foxtail, Setaria faberii), johnsongrass (Sorghum halepense), lambsquarters (Chenopodium album), morningglory (Ipomoea coccinea), nutsedge, yellow (yellow nutsedge, Cyperus esculentus), pigweed (Amaranthus retroflexus), ragweed (common ragweed, Ambrosia elatior), soybean (Glycine max), barnyardgrass (Echinochloa crus-galli), oilseed rape (Brassica napus), waterhemp (common waterhemp, Amaranthus rudis), kochia (Kochia scoparia), oat, wild (wild oat, Avena fatua), surinam grass (Brachiaria decumbens), foxtail, green (green foxtail, Setaria viridis), goosegrass (Eleusine indica), bromegrass, downy (downy bromegrass, Bromus tectorum), nightshade (eastern black nightshade, Solanum ptycanthum), cocklebur (common cocklebur, Xanthium strumarium), cupgrass, woolly (woolly cupgrass, Eriochloa villosa), bermudagrass (Cynodon dactylon), sunflower, (common oilseed sunflower, Helianthus annuus), Russian thistle (Salsola kali) and velvetleaf (Abutilon theophrasti) were planted into a blend of loam soil and sand and treated preemergence with test chemicals formulated in a non-phytotoxic solvent mixture which included a surfactant. At the same time, plants selected from these crop and weed species and also barley (winter barley, Hordeum vulgare), […]), chickweed (common chickweed, Stellaria media), deadnettle (henbit deadnettle, Lamium amplexicaule), and canarygrass (littleseed canarygrass, Phalaris minor) were planted in pots containing Redi-Earth® planting medium (Scotts Company, 14111 Scottslawn Road, Marysville, Ohio 43041) comprising spaghnum peat moss, vermiculite, wetting agent and starter nutrients and treated with postemergence applications of test chemicals formulated in the same manner. Plants ranged in height from 2 to 18 cm (1- to 4-leaf stage) for postemergence treatments. Treated plants and controls were maintained in a greenhouse for 13 to 15 days, after which time all species were compared to controls and visually evaluated. Plant response ratings, summarized in Table C, are based on a scale of 0 to 100 where 0 is no effect and 100 is complete control. A dash (-) response means no test result.

morningglory = test: Test A pre-/postemergence herbicide test; type: in vivo, Ipomoea spp.; details: for Morningglory plant response rating: visual rating on 0 to 100 scale (0 no effect, 100 complete control)
Summary of the method: as §2

crabgrass, large = test: Test A pre-/postemergence herbicide test; type: in vivo, Digitaria sanguinalis; details: for Crabgrass, Large plant response rating: visual rating on 0 to 100 scale (0 no effect, 100 complete control)
Summary of the method: as §2

oat, wild = test: Test C pre-/postemergence herbicide test; type: in vivo, Avena fatua; details: Preemergence
Source text: as §3

[1] = 125 g ai/ha, scale of 0 to 100 where 0 is no effect and 100 is complete control, 13 to 15 days
[2] = 250 g ai/ha, scale of 0 to 100 where 0 is no effect and 100 is complete control, 13 to 15 days
[3] = 125 g ai/ha, visual rating, 0 no effect, 100 complete control, approximately 10 days, preemergence
[4] = Postemergence, 125 g ai/ha, 0 is no effect, 100 is complete control
[5] = preemergence, 500 g ai/ha, 0 is no effect and 100 is complete control
[6] = 31 g ai/ha, scale 0 to 100, 0 is no effect and 100 is complete control
[7] = 62 g ai/ha, scale 0 to 100 (0 no effect, 100 complete control)
[8] = 125 g ai/ha, scale 0 to 100 (0 no effect, 100 complete control)
[9] = 31 g ai/ha, scale of 0 to 100 where 0 is no effect and 100 is complete control, 13 to 15 days
[10] = 62 g ai/ha, scale of 0 to 100 where 0 is no effect and 100 is complete control, 13 to 15 days
[11] = Postemergence, 500 g ai/ha, 0 to 100 scale (0 no effect, 100 complete control)
[12] = Preemergence, 125 g ai/ha, 0 to 100 scale where 0 is no effect and 100 is complete control
[13] = preemergence, 500 g ai/ha, 0 to 100 scale, 0 is no effect and 100 is complete control
[14] = Postemergence, 125 g ai/ha, 0 to 100 scale, 0 is no effect, 100 is complete control
[15] = Postemergence, 125 g ai/ha, 0 to 100 scale, 0 no effect, 100 complete control
[16] = preemergence, 500 g ai/ha, 0 to 100 scale
[17] = 125 g ai/ha, visual rating, 0 to 100 scale, 0 no effect, 100 complete control, approximately 10 days, preemergence

Structure (SMILES)	Plant response rating, Sedge, Umbrella (sedge, umbrella; [1])	Plant response rating, Sedge, Umbrella (sedge, umbrella; [2])	Plant response rating, Sedge, Umbrella (sedge, umbrella; 500 g ai/ha, scale 0 to 100)	Plant response rating, Sedge, Umbrella (sedge, umbrella; 1000 g ai/ha, scale 0 to 100)	Wheat plant response rating (wheat (winter wheat); [6])	Wheat plant response rating (wheat (winter wheat); [7])	Plant response rating, Wheat (wheat (winter wheat); [8])	Plant response rating (scale of 0 to 100), Wheat (wheat (winter wheat))	Plant response rating, Rice (rice; [1])	Plant response rating, Rice (rice; [2])	Plant response rating, Rice (rice; 500 g ai/ha, scale 0 to 100)	Plant response rating, Rice (rice; 1000 g ai/ha, scale 0 to 100)	Ryegrass, Italian plant response rating (ryegrass, Italian; [6])	Ryegrass, Italian plant response rating (ryegrass, Italian; [7])	Plant response rating, Ryegrass, Italian (ryegrass, Italian; [8])	Plant response rating (scale of 0 to 100), Ryegrass, Italian (ryegrass, Italian)	Plant response rating, Morningglory (morningglory; [11])	Plant response rating, Morningglory (morningglory; [13])	Plant response rating, Crabgrass, Large (crabgrass, large; [14])	Plant response rating, Crabgrass, Large (crabgrass, large; [11])	also measured
O=C1NCC(c2cccc(C(F)F)c2)C1C(=O)Nc1cccc(F)c1F (racemic) [Compound 211]	0	0	0	30	0	0	30	45	0	0	15	15	0	35	40	50	–	–	–	–	Plant response rating, Ragweed (ragweed; [3]): 30; Plant response rating, Ragweed (ragweed; [4]): 0; Ragweed plant response rating (0 to 100 scale, 0 is no effect, 100 is complete control) (ragweed; Postemergence, 500 g ai/ha): 30; Plant response rating, Ragweed (ragweed; [5]): 80; Plant response rating, Kochia (kochia; [3]): 40; Plant response rating, Kochia (kochia; [4]): 40; Kochia plant response rating (0 to 100 scale, 0 is no effect, 100 is complete control) (kochia; Postemergence, 500 g ai/ha): 60; Plant response rating, Kochia (kochia; [5]): 70; Plant response rating, Galium (galium; 125 g ai/ha, 0 to 100 scale, 0 is no effect, 100 is complete control): 60; Galium plant response rating (0 to 100 scale, 0 is no effect, 100 is complete control) (galium; 500 g ai/ha): 70
O=C1NCC(c2ccc(C(F)(F)F)nc2)C1C(=O)Nc1cccc(F)c1F (racemic) [Compound 263]	0	0	–	–	0	10	–	50	0	15	–	–	0	0	0	35	60	0	80	90	Plant response rating, Sedge, Umbrella (sedge, umbrella; [9]): 0; Plant response rating, Sedge, Umbrella (sedge, umbrella; [10]): 0; Plant response rating, Morningglory (morningglory; [12]): 0; Plant response rating, Rice (rice; [9]): 0; Plant response rating, Rice (rice; [10]): 0; Plant response rating, Crabgrass, Large (crabgrass, large; [12]): 90; Plant response rating, Crabgrass, Large (crabgrass, large; [13]): 100
O=C1NCC(c2cccc(Br)c2)C1C(=O)Nc1cccc(F)c1F (stereo not shown) [Compound 64]	–	–	–	–	–	–	15	–	–	–	–	–	–	–	0	–	0	–	–	80	Plant response rating, Oat, Wild (oat, wild; 62 g ai/ha, scale 0 to 100): 10; Plant response rating, Oat, Wild (oat, wild; [8]): 10; Plant response rating, Morningglory (morningglory; [15]): 0; Morningglory plant response rating (morningglory; Preemergence, 125 g ai/ha): 0; Plant response rating, Morningglory (morningglory; [16]): 0; Plant response rating, Wheat (wheat (winter wheat); 62 g ai/ha, scale 0 to 100): 5; Plant response rating, Crabgrass, Large (crabgrass, large; [15]): 80; Crabgrass, Large plant response rating (crabgrass, large; Preemergence, 125 g ai/ha): 80; Plant response rating, Crabgrass, Large (crabgrass, large; [16]): 90; Plant response rating, Ryegrass, Italian (ryegrass, Italian; 62 g ai/ha, scale 0 to 100): 0
O=C1NCC(c2cccc(C(F)(F)F)c2)C1C(=O)Nc1ccccc1Cl (racemic) [Compound 189]	0	–	0	0	0	0	0	–	0	–	0	0	0	30	45	–	–	0	60	–	Plant response rating, Sedge, Umbrella (sedge, umbrella; 250 g ai/ha, scale 0 to 100): 0; Plant response rating, Morningglory (morningglory; [17]): 0; Plant response rating, Morningglory (morningglory; [14]): 0; Morningglory plant response rating (0 to 100 scale, 0 is no effect, 100 is complete control) (morningglory; Postemergence, 500 g ai/ha): 0; Plant response rating, Wheat (wheat (winter wheat); 16 g ai/ha, scale 0 to 100): 0; Plant response rating, Rice (rice; 250 g ai/ha, scale 0 to 100): 0; Plant response rating, Crabgrass, Large (crabgrass, large; [17]): 90; Crabgrass, Large plant response rating (0 to 100 scale, 0 is no effect, 100 is complete control) (crabgrass, large; Postemergence, 500 g ai/ha): 80; Plant response rating, Crabgrass, Large (crabgrass, large; [13]): 90; Plant response rating, Ryegrass, Italian (ryegrass, Italian; 16 g ai/ha, scale 0 to 100): 0
O=C1NCC(c2cccc(C(F)(F)F)c2)C1C(=O)Nc1ccccc1F (racemic) [Compound 3]	0	–	–	–	–	–	–	–	0	–	–	–	–	–	–	–	30	–	–	80	Plant response rating, Sedge, Umbrella (sedge, umbrella; [9]): 0; Plant response rating, Sedge, Umbrella (sedge, umbrella; [10]): 0; Plant response rating, Sedge, Umbrella (sedge, umbrella; 250 g ai/ha, scale 0 to 100): 50; Morningglory plant response rating (morningglory; Preemergence, 125 g ai/ha): 0; Plant response rating, Morningglory (morningglory; [16]): 0; Plant response rating, Rice (rice; [9]): 0; Plant response rating, Rice (rice; [10]): 0; Plant response rating, Rice (rice; 250 g ai/ha, scale 0 to 100): 0; Plant response rating, Crabgrass, Large (crabgrass, large; [15]): 70; Crabgrass, Large plant response rating (crabgrass, large; Preemergence, 125 g ai/ha): 90; Plant response rating, Crabgrass, Large (crabgrass, large; [16]): 90
O=C1NCC(c2ccc(C(F)(F)F)c(F)c2)C1C(=O)Nc1cccc(F)c1F (racemic) [Compound 247]	–	0	0	0	0	0	–	0	–	0	0	0	0	35	40	50	0	0	50	70	Plant response rating, Sedge, Umbrella (sedge, umbrella; 2000 g ai/ha, scale 0 to 100): 0; Plant response rating, Morningglory (morningglory; [14]): 0; Plant response rating, Morningglory (morningglory; [12]): 0; Plant response rating, Rice (rice; 2000 g ai/ha, scale 0 to 100): 15; Plant response rating, Crabgrass, Large (crabgrass, large; [12]): 90; Plant response rating, Crabgrass, Large (crabgrass, large; [13]): 90
